These results are taken from US20160318892A1, “PRODRUG COMPOUNDS” (PROXIMAGEN LIMITED, priority 2013, published 2016).

By solubility is commonly meant the concentration that dissolves in the medium under given conditions. Lower therefore signals little dissolved substance.

≈ marks a conversion by molar mass, not a printed value. Like-named read-outs stand apart in the source and are kept apart here.

A short description of data set [1]: Solubility in aqueous solutions. The data set is classed as physicochemical. The settings on record: aqueous solution. The text has this:
In an embodiment prodrugs of the present invention are suitable for oral administration. The skilled person understands that the pH of the gastrointestinal tract changes along its length. For example, the stomach has a pH of around pH 1.5 and the GI tract after the stomach has a pH of around 5 to 7.5. For more detail see, for example, Measurement of gastrointestinal pH profiles in normal ambulant human subjects, Gut. 1988 August; 29(8): 1035-1041. Improved solubility is expected to result in improved absorption, and therefore improved oral bioavailability. Thus improved solubility at any pH value between around pH 1.5 to 8 is expected to improve oral bioavailability. Compounds of the invention were assessed for solubility in aqueous solutions having a pH of from 2 to 10. In an embodiment prodrugs of the invention have a solubility of >0.5 mg/mL in an aqueous solution having a pH of from 2 to 8. In an embodiment prodrugs have a solubility of >5.0 mg/mL, or >10.0 mg/mL, >100.0 mg/mL, or >200.0 mg/mL. In an embodiment the prodrugs have the aforementioned aqueous solubility at a pH within the range of from 4 to 8, or from 6 to 8.
In an embodiment prodrugs of the invention are administered intravenously. High prodrug solubility is advantageous in order to reduce the volume of solution administered to the patient, and to reduce the risk of damage to the circulatory system. Solubility of >10 mg/mL is preferred. Yet more preferred is solubility of >30 mg/mL or >100.0 mg/mL. Yet more preferred is solubility of >200.0 mg/mL. The solubility is measured in an aqueous solution having a pH of from 2 to 10, which pH range is advantageous for intravenous prodrug delivery. See, for example, A guide on intravenous drug compatibilities based on their pH, Nasser S C et al./Pharmacie Globale (IJCP) 2010, 5 (01)). In an embodiment the prodrugs of the claimed invention have solubility of >10 mg/mL in an aqueous solution having a pH of from 2 to 10.

For data set [2], the system named is unique stereo-selective site in rat brain. The settings on record: cited from earlier work.
Data set [3] deals with unique stereo-selective site in human brain. The settings on record: cited from earlier work.
In data set [4] the test system is high K+ evoked CSD. The settings on record: rats; cited from earlier work.
Data set [5] has as its system high K+ evoked CSD. The settings on record: cats; cited from earlier work.

In data set [1] (aqueous buffer, pH 7.0), `CC(=O)c1ccc2c(c1)[C@H](NC(=O)c1ccc(F)cc1)[C@@H](OP(=O)(O)O)C(C)(C)O2` [Example 1, {[(3R,4S)-6-Acetyl-4-[(4-fluorobenzene)amido]-2,2-dimethyl-3,4-dihydro-2H-1-benzopyran-3-yl]oxy}phosphonic acid] yielded a solubility of approximately 10000 µg/mL (≈ 22.9 mM).

Compound `CC(=O)c1ccc2c(c1)[C@H](NC(=O)c1ccc(F)cc1)[C@@H](OCOP(=O)([O-])O)C(C)(C)O2.[Na+]` [Example 2, Sodium {[(3R,4S)-6-Acetyl-4-[(4-fluorobenzene)amido]-2,2-dimethyl-3,4-dihydro-2H-1-benzopyran-3-yl]oxy}methyl hydrogen phosphate] had a solubility in data set [1] (aqueous buffer, pH 4.0) of more than 10000 µg/mL.

Compound `CC(=O)c1ccc2c(c1)[C@H](NC(=O)c1ccc(F)cc1)[C@@H](OC(=O)[C@@H](N)C(C)C)C(C)(C)O2.Cl` [Example 3, (3R,4S)-6-Acetyl-4-[(4-fluorobenzene)amido]-2,2-dimethyl-3,4-dihydro-2H-1-benzopyran-3-yl (2S)-2-amino-3-methylbutanoate hydrochloride] showed a solubility in data set [1] (pH 3.6, aqueous buffer) of less than 1000 µg/mL.

On to `CC(=O)c1ccc2c(c1)[C@H](NC(=O)c1ccc(F)cc1)[C@@H](OC(=O)[C@@H](NC(=O)[C@@H](N)C(C)C)C(C)C)C(C)(C)O2.Cl` [Example 4, (3R,4S)-6-Acetyl-4-[(4-fluorobenzene)amido]-2,2-dimethyl-3,4-dihydro-2H-1-benzopyran-3-yl (2S)-2-[(2S)-2-amino-3-methylbutanamido]-3-methylbutanoate hydrochloride], for which the solubility in data set [1] (pH 4.2, aqueous buffer) was more than 10000 µg/mL.

Consider `CC(=O)c1ccc2c(c1)[C@H](NC(=O)c1ccc(F)cc1)[C@@H](OC(=O)CN)C(C)(C)O2.Cl` [Example 5, (3R,4S)-6-Acetyl-4-[(4-fluorobenzene)amido]-2,2-dimethyl-3,4-dihydro-2H-1-benzopyran-3-yl 2-aminoacetate hydrochloride], for which the solubility in data set [1] (pH 5.1, aqueous buffer) is more than 5000 µg/mL.

Consider `CC(=O)c1ccc2c(c1)[C@H](NC(=O)c1ccc(F)cc1)[C@@H](OC(=O)CNC(=O)[C@@H]1CCCN1)C(C)(C)O2.Cl` [Example 6, (3R,4S)-6-Acetyl-4-[(4-fluorobenzene)amido]-2,2-dimethyl-3,4-dihydro-2H-1-benzopyran-3-yl 2-[(2S)-pyrrolidin-2-ylformamido]acetate hydrochloride], for which the solubility in data set [1] (pH 6.1, aqueous buffer) was more than 10000 µg/mL.

The compound `CC(=O)c1ccc2c(c1)[C@H](NC(=O)c1ccc(F)cc1)[C@@H](OC(=O)CNC(C)C)C(C)(C)O2.Cl` [Example 7, (3R,4S)-6-Acetyl-4-[(4-fluorobenzene)amido]-2,2-dimethyl-3,4-dihydro-2H-1-benzopyran-3-yl 2-[(propan-2-yl)amino]acetate hydrochloride] yielded a solubility in data set [1] (pH 3.5, aqueous buffer) of less than 1000 µg/mL.

Take `CC(=O)c1ccc2c(c1)[C@H](NC(=O)c1ccc(F)cc1)[C@@H](OC(=O)OCCN1CCOCC1)C(C)(C)O2.Cl` [Example 8, (3R,4S)-6-Acetyl-4-[(4-fluorobenzene)amido]-2,2-dimethyl-3,4-dihydro-2H-1-benzopyran-3-yl 2-(morpholin-4-yl)ethyl carbonate hydrochloride]: the solubility in data set [1] (aqueous buffer, pH 4.0) was approximately 10000 µg/mL.

`CC(=O)c1ccc2c(c1)[C@H](NC(=O)c1ccc(F)c(Cl)c1)[C@H](O)C(C)(C)O2` [Tonabersat]: the “binding affinity to unique stereo-selective site” value in data set [2] and in data set [3] was “high affinity” each time. Moreover, the “inhibition of high K+ evoked CSD” value in data set [4] and in data set [5] was “inhibits” in each case.
